Test results: US10369165B2, “Composition containing active components of Dracocephalum moldavica L. against myocardial ischemia-reperfusion injury” (Nanjing Ruiying Runze Biopharmaceutical Technology Co., Inc., priority 2014, dated 2019)

Experiments:
[1] = system: rat H9c2 cardiac myocytes; experiment: MTT cell activity of H9c2 cardiac myocytes after hypoxia/reoxygenation injury; type: cell-based; details: total 30 μM, 12 h preincubation, hypoxia 6 h, reoxygenation 5 h
Description: Rat cardiac myocytes H9c2 in logarithmic growth phase are taken. After digestion, the cells are resuspended with DMEM medium (containing 10% FBS), then inoculated into 96-well plate and normally cultured in incubator of 37° C. and 5% CO2. After entering logarithmic growth phase, the cells are divided into following groups for experiment: (1) normal culture group (Control group): during the experiment, cells are normally cultured in incubator of 37° C. and 5% CO2; (2) […] Model group (Model group): normal culture fluid for the experimental cells in logarithmic growth phase is replaced with glucose-free Earle's solution which has been previously saturated with mixture of 95% N2+5% CO2 for 1 hour. Then the cells are cultured in hypoxic condition for 6 h at 37° C. in constant-temperature incubator introduced with the mixture of 95% N2+5% CO2. Then the hypoxia treated cells are subjected to reoxygenation in normal condition for 5 h with the high glucose medium DMEM (containing 10% FBS) which has been previously saturated with mixture of 95% air+5% CO2. (3) pre-treated compatible group of luteilon, kaempferol and luteolin-7-O-glucoside: H9c2 cells are preincubated for 12 h with luteilon, kaempferol and luteolin-7-O-glucoside combined in different ratios. Then, the normal culture solution is replaced with glucose-free Earle's solution which has been previously saturated with mixture of 95% N2+5% CO2 for 1 hour. After anoxic treatment for 6 h with N2 anoxic tank, the cells are subjected to reoxygenation for 5 h in normal culture condition with normal culture solution; meanwhile the cells are incubated with the administration of each compatible drug. After treatment, 20 μg/ml MTT is added, and each experimental group is cultured for 4 h, then MTT is solved in 150 μl DMSO. OD of each well is read by ELISA meter at wavelength of 490 nm, and activity of cells is determined.

[2] = system: rat primary cardiac myocytes; experiment: MTT cell activity of rat primary cardiac myocytes injured by hypoxia/reoxygenation; type: cell-based; details: 30 μM, 24 h pre-treatment, hypoxia 6 h, reoxygenation 5 h
Description: Wistar ventricular myocytes of neonatal rat aged 2 d are isolated under asepsis condition, then the myocytes are digested with mixture of digestive enzymes (0.06% trypsin and 0.1% type II collagenase mixed in equal amount) for multiple times in a short time. Cardiac myocytes are purified using differential adhesion method. […] The cells are cultured for 24 hours, then the supernatant is discarded, and the cells are washed with PBS three times. […] After pre-treatment for 24 h, all of the hypoxia/reoxygenation injury groups are placed in glucose-free Earle's solution which has been previously saturated with mixture of 95% N2+5% CO2 for 1 hour. The cells are cultured in hypoxic condition for 6 h at 37° C. in constant-temperature incubator introduced with the mixture of 95% N2+5% CO2. Then the hypoxia treated cells are subjected to reoxygenation in normal condition for 5 h with the DMEM high glucose medium (containing 10% FBS) which has been previously saturated with mixture of 95% air+5% CO2. At the same time, the cells are incubated with the administration of compatible compositions. After treating the experimental groups of cells, 20 μg/ml MTT is added, and each experimental group is cultured for 4 h, then MTT is solved in 150 μl DMSO. OD of each well is read by ELISA meter at wavelength of 490 nm, and activity of cells is determined.

SHP-2 = molecular target: T1, SHP-2 (Homo sapiens, UniProt Q06124); details: previous studies; cited from earlier work
T1 sequence (Q06124 1-593): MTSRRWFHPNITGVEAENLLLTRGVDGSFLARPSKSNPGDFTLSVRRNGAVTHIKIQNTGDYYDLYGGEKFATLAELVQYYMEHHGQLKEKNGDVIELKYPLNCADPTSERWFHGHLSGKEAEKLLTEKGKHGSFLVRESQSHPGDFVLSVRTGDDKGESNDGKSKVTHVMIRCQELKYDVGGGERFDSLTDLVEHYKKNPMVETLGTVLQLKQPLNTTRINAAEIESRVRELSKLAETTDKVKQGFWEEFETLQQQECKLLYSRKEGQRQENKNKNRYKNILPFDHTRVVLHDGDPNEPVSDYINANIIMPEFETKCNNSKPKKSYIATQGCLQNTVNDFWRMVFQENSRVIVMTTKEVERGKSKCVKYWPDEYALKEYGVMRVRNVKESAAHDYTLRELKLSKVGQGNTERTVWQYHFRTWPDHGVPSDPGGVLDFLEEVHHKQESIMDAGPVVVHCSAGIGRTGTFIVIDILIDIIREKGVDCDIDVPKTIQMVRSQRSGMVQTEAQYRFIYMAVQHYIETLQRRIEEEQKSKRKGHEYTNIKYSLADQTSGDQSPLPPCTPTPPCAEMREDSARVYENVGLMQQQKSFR

PTEN = PTEN (Homo sapiens, UniProt P60484); details: previous studies; cited from earlier work
[3] = system: rat primary cardiac myocytes; experiment: pH of culture supernatant of rat primary cardiac myocytes injured by nitrogen hypoxia/reoxygenation; type: cell-based; details: 30 μM; culture medium supernatant; hypoxia 6 h, reoxygenation 5 h
Description: Experiment method: Wistar ventricular myocytes of neonatal rat aged 2 d are isolated under asepsis condition, then the myocytes are digested with mixture of digestive enzymes (0.06% trypsin and 0.1% type II collagenase mixed in equal amount) for multiple times in a short time. Cardiac myocytes are purified using differential adhesion method. […] The cells are cultured for 24 hours, then the supernatant is discarded, and the cells are washed with PBS three times. All of the cells are classified into contrast group, hypoxia/reoxygenation injury group, hypoxia/reoxygenation model+compatible composition group. After pre-treatment for 24 h, all of the hypoxia/reoxygenation injury groups are placed in glucose-free Earle's solution which has been previously saturated with mixture of 95% N2+5% CO2 for 1 hour. The cells are cultured in hypoxic condition for 6 h at 37° C. in constant-temperature incubator introduced with the mixture of 95% N2+5% CO^2. Then the hypoxia treated cells are subjected to reoxygenation in normal condition for 5 h with the high glucose medium DMEM (containing 10% FBS) which has been previously saturated with mixture of 95% air+5% CO2. At the same time, the cells are incubated with compatible compositions. After treating the experimental groups of cells, the supernatant is collected; the pH of supernatant of culture medium is measured directly with pH meter.

[4] = system: rat primary cardiac myocytes; experiment: ATP, ADP, AMP content (HPLC) of rat primary cardiac myocytes injured by nitrogen hypoxia/reoxygenation; type: cell-based; details: 30 μM, cell lysate supernatant
Description: Experiment method: Wistar ventricular myocytes of neonatal rat aged 2 d are isolated under asepsis condition, then the myocytes are digested with mixture of digestive enzymes (0.06% trypsin and 0.1% type II collagenase mixed in equal amount) for multiple times in a short time. Cardiac myocytes are purified using differential adhesion method. […] The cells are cultured for 24 hours, then the supernatant is discarded, and the cells are washed with PBS three times. All of the cells are classified into contrast group, hypoxia/reoxygenation injury group, hypoxia/reoxygenation model+compatible composition group. After pre-treatment for 24 h, all of the hypoxia/reoxygenation injury groups are placed in glucose-free Earle's solution which has been previously saturated with mixture of 95% N2+5% CO2 for 1 hour. The cells are cultured in hypoxic condition for 6 h at 37° C. in constant-temperature incubator introduced with the mixture of 95% N2+5% CO2. Then the hypoxia treated cells are subjected to reoxygenation in normal condition for 5 h with the high glucose medium DMEM (containing 10% FBS) which has been previously saturated with mixture of 95% air+5% CO2. At the same time, the cells are incubated with compatible compositions. After treating the experimental groups of cells, the culture solution is discarded. The cells are washed once with pre-cooled PBS. 500 μl pre-cooled 50% perchlorate solution is added in each well. Pyrolysis of cells take place on ice for 5 min. The cells are scrapped, 600 μl of 2.5 mol/L Na2CO3 solution is added, and pH is adjusted to 6.5. Pyrolysis mixture is collected in centrifuge tube and centrifuged in 4° C. Content of supernatant is determined by HPLC. […] The content is determined with HPLC method. The equipment is LC-2010C quaternionic pump high performance liquid chromatogram, analytical column is Diamonsil C18 column (250 mm×4.6 mm, 5 μm), detection wavelength: 260 nm, mobile phase is 0.05M phosphate buffer (pH 6.5), detector is UV-vis detector. Flow-rate of column is 0.8 ml/min, sample size is 20 μl, and analytical time is 12 min, the data is processed using LCsolution chromatography workstation (Japan, […]).

[5] = system: myocardial ischemia-reperfusion injury (MIRI); details: previous studies; cited from earlier work
[6] = system: rat primary cardiac myocytes; experiment: LDH leak of rat primary cardiac myocytes injured by nitrogen hypoxia/reoxygenation; type: cell-based; details: 30 μM; culture medium supernatant; hypoxia 6 h, reoxygenation 5 h
Description: Experiment Method: Wistar ventricular myocytes of neonatal rat aged 2 d are isolated under asepsis condition, then the myocytes are digested with mixture of digestive enzymes (0.06% trypsin and 0.1% type II collagenase mixed in equal amount) for multiple times in a short time. Cardiac myocytes are purified using differential adhesion method. […] The cells are cultured for 24 hours, then the supernatant is discarded, and the cells are washed with PBS three times. All of the cells are classified into contrast group, hypoxia/reoxygenation injury group, hypoxia/reoxygenation model+compatible composition group. After pre-treatment for 24 h, all of the hypoxia/reoxygenation injury groups are placed in glucose-free Earle's solution which has been previously saturated with mixture of 95% N2+5% CO2 for 1 hour. The cells are cultured in hypoxic condition for 6 h at 37° C. in constant-temperature incubator introduced with mixture of 95% N2+[…]. Then the hypoxia treated cells are subjected to reoxygenation in normal condition for 5 h with the high glucose medium DMEM (containing 10% FBS) which has been previously saturated with mixture of 95% air+[…]. At the same time, the cells are incubated with compatible compositions. After treating the experimental groups of cells, the supernatant is collected; the content of LDH leak in supernatant of culture medium is measured according to the steps of LDH kit.

PTEN, sequence (P60484 whole entry, species assumed): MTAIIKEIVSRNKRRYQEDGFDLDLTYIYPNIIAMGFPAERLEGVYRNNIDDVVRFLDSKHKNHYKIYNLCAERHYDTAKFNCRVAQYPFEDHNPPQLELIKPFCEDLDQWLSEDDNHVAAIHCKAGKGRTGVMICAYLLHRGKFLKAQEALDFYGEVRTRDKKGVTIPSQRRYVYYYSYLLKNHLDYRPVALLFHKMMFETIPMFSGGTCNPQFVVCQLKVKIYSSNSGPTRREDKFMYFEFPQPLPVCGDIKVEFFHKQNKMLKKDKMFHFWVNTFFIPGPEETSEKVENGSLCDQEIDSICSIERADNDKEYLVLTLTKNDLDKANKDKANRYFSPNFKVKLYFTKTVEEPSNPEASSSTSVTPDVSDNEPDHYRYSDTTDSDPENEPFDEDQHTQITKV

SMILES	protection rate of cell activity (%) [1] [%]	protection rate of cell activity (%) [2] [%]	activity of SHP-2 (SHP-2)	activity of PTEN (PTEN)	pH of supernatant [3]	ADP [4] [µg/mL]	AMP [4] [µg/mL]	ATP [4] [µg/mL]	heart rate [5]	mitochondrial Ca2+ [5]	Leak rate (%) of LDH [6] [%]	function of myocardial contraction [5]	mitochondrial membrane potential [5]	level of cytoplasmic Ca2+ [5]	oxygen free radical damage [5]
O=c1c(O)c(-c2ccc(O)cc2)oc2cc(O)cc(O)c12 [Kaempferol, kaempferol]	76.97 ± 6.67	69.22	inhibit	inhibit	7.10	17.15	7.15	84.72	maintain	reduce	111.25				
O=c1cc(-c2ccc(O)c(O)c2)oc2cc(O)cc(O)c12 [Luteilon, luteolin]	81.93 ± 7.18	68.08			7.11	15.38	7.59	102.88			122.37	improve	increase		
O=c1cc(-c2ccc(O)c(O)c2)oc2cc(O[C@@H]3O[C@H](CO)[C@@H](O)[C@H](O)[C@H]3O)cc(O)c12 [Luteolin-7-0-glucoside, luteolin-7-O-glucoside]	78.57 ± 4.54	71.17			7.08	17.12	8.97	69.45			115.18			reduce	prevent
